Assay results reported in ChEMBL document CHEMBL1201862, “PubChem BioAssay data set” (2004).
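1) Cells in 96-well plates. 2) Compound, 48 h, 5 concentrations. 3) Linear interpolation between surrounding doses. 4) Unreached endpoint = highest concentration. GI50 marks 50% less growth.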 Active and inactive are the calls of the source. No stated cut-off is given here; in the data, active = GI50 up to about 1.1 µM and inactive = higher.

How the values were obtained:
Test in all cases: DTP human tumour cell line panel, 48 h
[1] = system: A498
[2] = system: A549
[3] = system: CCRF-CEM
[4] = system: COLO 205
[5] = system: DU-145
[6] = system: HCT-116
[7] = system: HCT-15
[8] = system: MDA-N
[9] = system: MOLT-4
[10] = system: Malme-3M
[11] = system: NCI/ADR-RES
[12] = system: OVCAR-4
[13] = system: OVCAR-8
[14] = system: RXF 393
[15] = system: SF-295
[16] = system: SK-MEL-28
[17] = system: SK-OV-3
[18] = system: SW-620
[19] = system: TK-10
[20] = system: UACC-257

SMILES | GI50 [1] | GI50 [2] | GI50 [3] | GI50 [4] | GI50 [5] | GI50 [6] | GI50 [7] | GI50 [8] | GI50 [9] | GI50 [10] | GI50 [11] | GI50 [12] | GI50 [13] | GI50 [14] | GI50 [15] | GI50 [16] | GI50 [17] | GI50 [18] | GI50 [19] | GI50 [20]
O=P(O)(O)CCP(=O)(O)O | > 100 µM (inactive) | > 100 µM (inactive) | > 100 µM (inactive) | > 100 µM (inactive) | > 100 µM (inactive) | > 100 µM (inactive) | > 100 µM | > 100 µM (inactive) | > 100 µM (inactive) | > 100 µM (inactive) | > 100 µM (inactive) | > 100 µM (inactive) | > 100 µM (inactive) | > 100 µM (inactive) | > 100 µM (inactive) | > 100 µM (inactive) | > 100 µM (inactive) | > 100 µM (inactive) | > 100 µM (inactive) | 5.62 µM (inactive)
COc1ccc(/C=C/NC=O)cc1 | > 100 µM (inactive) | > 100 µM (inactive) | > 100 µM (inactive) | > 100 µM (inactive) | > 100 µM (inactive) | > 100 µM (inactive) | > 100 µM | > 100 µM (inactive) | > 100 µM (inactive) | > 100 µM (inactive) | > 100 µM (inactive) | > 100 µM (inactive) | > 100 µM (inactive) | > 100 µM (inactive) | > 100 µM (inactive) | > 100 µM (inactive) | > 100 µM (inactive) | > 100 µM (inactive) | > 100 µM (inactive) | > 100 µM (inactive)
COP(=O)(OC)/C(=C\c1cn(C(c2ccccc2)(c2ccccc2)c2ccccc2)cn1)NC(C)=O | > 100 µM (inactive) | 53.7 µM (inactive) | 77.1 µM (inactive) | 84.3 µM (inactive) | > 100 µM (inactive) | 58.5 µM (inactive) | > 100 µM | > 100 µM (inactive) | 34.4 µM (inactive) | > 100 µM (inactive) | > 100 µM (inactive) | > 100 µM (inactive) | > 100 µM (inactive) | 30.6 µM (inactive) | > 100 µM (inactive) | > 100 µM (inactive) | > 100 µM (inactive) | > 100 µM (inactive) | > 100 µM (inactive) | 62.5 µM (inactive)
CCCNc1ncnc2c1ncn2C | 22.9 µM (inactive) | > 100 µM (inactive) | 22.1 µM (inactive) | 96.4 µM (inactive) | 85.3 µM (inactive) | > 100 µM (inactive) | 86.9 µM | > 100 µM (inactive) | 45.3 µM (inactive) | 45.3 µM (inactive) | 68.4 µM (inactive) | > 100 µM (inactive) | 48.5 µM (inactive) | > 100 µM (inactive) | 40.6 µM (inactive) | > 100 µM (inactive) | > 100 µM (inactive) | 94.4 µM (inactive) | > 100 µM (inactive) | > 100 µM (inactive)
CSc1nc(=O)c(C#N)c(-c2ccccc2)n1C1OC(COC(C)=O)C(OC(C)=O)C(OC(C)=O)C1OC(C)=O (stereo not given) | > 100 µM (inactive) | 69.3 µM (inactive) | 99.8 µM (inactive) | > 100 µM (inactive) | > 100 µM (inactive) | 79.4 µM (inactive) | > 100 µM | > 100 µM (inactive) | > 100 µM (inactive) | 69.3 µM (inactive) | > 100 µM (inactive) | > 100 µM (inactive) | 60.5 µM (inactive) | 94.4 µM (inactive) | > 100 µM (inactive) | > 100 µM (inactive) | > 100 µM (inactive) | > 100 µM (inactive) | > 100 µM (inactive) | > 100 µM (inactive)
O=C(/C=C/c1ccccc1)Nc1ccccc1SCCCCl | 9.08 µM (inactive) | 25 µM (inactive) | 10 µM (inactive) | 15.6 µM (inactive) | 10.2 µM (inactive) | 8.91 µM (inactive) | 13.4 µM | 6.38 µM (inactive) | 12.7 µM (inactive) | 10.7 µM (inactive) | 3.66 µM (inactive) | 12.1 µM (inactive) | 16.5 µM (inactive) | 8.43 µM (inactive) | 7.89 µM (inactive) | > 47.4 µM (inactive) | 8.41 µM (inactive) | 6.46 µM (inactive) | 55.7 µM (inactive) | 18.2 µM (inactive)
C/C(=N/NC(=S)Nc1ccccc1Cl)c1cccc(/C(C)=N\NC(=S)Nc2ccccc2Cl)n1 | > 100 µM (inactive) | 29.6 µM (inactive) | 9.79 µM (inactive) | 56.8 µM (inactive) | > 100 µM (inactive) | 16.1 µM (inactive) | 15 µM | > 100 µM (inactive) | 23.6 µM (inactive) | 35.8 µM (inactive) | > 100 µM (inactive) | 28.4 µM (inactive) | 11.3 µM (inactive) | > 100 µM (inactive) | > 100 µM (inactive) | > 100 µM (inactive) | > 100 µM (inactive) | 11.1 µM (inactive) | 49.1 µM (inactive) | 67 µM (inactive)
Br[C@@H]1[C@H]2c3nc4ccccc4nc3[C@@H]1C[C@H]2Br | 46.2 µM (inactive) | 58.9 µM (inactive) | 37 µM (inactive) | 45.7 µM (inactive) | 53 µM (inactive) | 59.7 µM (inactive) | 61.5 µM | > 100 µM (inactive) | 31.7 µM (inactive) | > 100 µM (inactive) | 51.4 µM (inactive) | 32.1 µM (inactive) | > 100 µM (inactive) | 37.7 µM (inactive) | 74.3 µM (inactive) | > 100 µM (inactive) | > 100 µM (inactive) | > 100 µM (inactive) | > 100 µM (inactive) | 83.6 µM (inactive)
O=[N+]([O-])c1ccc(-c2cc(O)c3nc4ccccc4n3c2)cc1 | > 100 µM (inactive) | > 100 µM (inactive) | > 100 µM (inactive) | > 100 µM (inactive) | > 100 µM (inactive) | > 100 µM (inactive) | > 100 µM | > 100 µM (inactive) | > 100 µM (inactive) | > 100 µM (inactive) | > 100 µM (inactive) | > 100 µM (inactive) | 60.1 µM (inactive) | > 100 µM (inactive) | > 100 µM (inactive) | > 100 µM (inactive) | 22.8 µM (inactive) | > 100 µM (inactive) | > 100 µM (inactive) | > 100 µM (inactive)
CN(C)CC1CN/C(=N\C(=O)Nc2ccccc2)O1 (stereo not given) | 42.3 µM (inactive) | > 100 µM (inactive) | > 100 µM (inactive) | > 100 µM (inactive) | > 100 µM (inactive) | > 100 µM (inactive) | > 100 µM | > 100 µM (inactive) | > 100 µM (inactive) | > 100 µM (inactive) | > 100 µM (inactive) | > 100 µM (inactive) | > 100 µM (inactive) | > 100 µM (inactive) | > 100 µM (inactive) | > 100 µM (inactive) | > 100 µM (inactive) | > 100 µM (inactive) | > 100 µM (inactive) | > 100 µM (inactive)
Cc1n[n+](Cc2ccccc2)c2sc(N)nn12 | > 100 µM (inactive) | > 100 µM (inactive) | 32 µM (inactive) | > 100 µM (inactive) | > 100 µM (inactive) | 76.4 µM (inactive) | > 100 µM | > 100 µM (inactive) | 58.9 µM (inactive) | > 100 µM (inactive) | > 100 µM (inactive) | > 100 µM (inactive) | > 100 µM (inactive) | > 100 µM (inactive) | > 100 µM (inactive) | > 100 µM (inactive) | 85.9 µM (inactive) | 64.6 µM (inactive) | > 100 µM (inactive) | > 100 µM (inactive)
COc1cc(N(CCC#N)CCC#N)ccc1C(/N=N/c1cccc([N+](=O)[O-])c1)=N\NC(=O)c1ccc(C)cc1 | > 100 µM (inactive) | > 100 µM (inactive) | 20.6 µM (inactive) | > 100 µM (inactive) | > 100 µM (inactive) | 50.5 µM (inactive) | 80.2 µM | 84.5 µM (inactive) | 16.9 µM (inactive) | > 100 µM (inactive) | 67.5 µM (inactive) | 53.7 µM (inactive) | 89.5 µM (inactive) | > 100 µM (inactive) | > 100 µM (inactive) | > 100 µM (inactive) | > 100 µM (inactive) | > 100 µM (inactive) | 31.7 µM (inactive) | 14.5 µM (inactive)
O=C(Cn1c2ccc(Br)cc2c2nc3ccccc3nc21)N1CCOCC1 | > 100 µM (inactive) | 98.4 µM (inactive) | > 100 µM (inactive) | > 100 µM (inactive) | > 100 µM (inactive) | 50.2 µM (inactive) | > 100 µM | > 100 µM (inactive) | > 100 µM (inactive) | > 100 µM (inactive) | 47.9 µM (inactive) | > 100 µM (inactive) | 44.3 µM (inactive) | 21.3 µM (inactive) | > 100 µM (inactive) | > 100 µM (inactive) | > 100 µM (inactive) | > 100 µM (inactive) | > 100 µM (inactive) | > 100 µM (inactive)
CCN(CC)CCNc1ccc2nnn3c4ccc([N+](=O)[O-])cc4c(=O)c1c23 | 6.3 µM (inactive) | 4.47 µM (inactive) | 4.91 µM (inactive) | 4.85 µM (inactive) | 7.69 µM (inactive) | 3.55 µM (inactive) | 6.93 µM | 71.8 µM (inactive) | 2.13 µM (inactive) | 9.12 µM (inactive) | 7.16 µM (inactive) | 9.18 µM (inactive) | 4.76 µM (inactive) | 4.78 µM (inactive) | 5.82 µM (inactive) | 14 µM (inactive) | > 37.6 µM (inactive) | 3 µM (inactive) | 11.6 µM (inactive) | 10 µM (inactive)
